According to ChEMBL document CHEMBL1157539, “Thousands of chemical starting points for antimalarial lead identification” (Nature, 2010):

Test system: Plasmodium falciparum
Test: GSK_TCMDC: Inhibition of Plasmodium falciparum 3D7 in whole erythrocytes, using parasite LDH activity as an index of growth.
Format: functional, organism-based
Conditions: Plasmodium falciparum, 3D7

Row | SMILES | XC50 [nM]
1 | CCN(CC)CCN(Cc1ccc(-c2ccc(C(F)(F)F)cc2)cc1)C(=O)Cn1c(CCc2cc(F)c(F)cc2F)nc(=O)c2ccccc21 | 718
2 | CC(C)N1CCC(N(Cc2ccc(-c3ccc(Cl)cc3)cc2)C(=O)Cn2c(CCc3cccc(F)c3F)nc(=O)c3ccccc32)CC1 | 944
3 | COc1ccc2[nH]c3ccccc3c(=O)c2c1 | 1000
4 | COc1cc(Cc2cnc(N)nc2N)cc(OCC(C)(C)C(=O)O)c1OC | 1110
5 | COc1ccc2c(CCNc3nc(SC)ncc3C(=O)NCCc3ccc(F)cc3)c[nH]c2c1 | 762
6 | CC(=O)c1sc(Cc2nc3ccccc3s2)nc1C | 1070
7 | CN1CCN(c2ccnc3cc4ccccc4cc23)CC1 | 947
8 | c1cncc(CN2CCCN(c3ccc4c(c3)CCN(Cc3ccc(-c5ncc[nH]5)cc3)CC4)CC2)c1 | 747
9 | CN(C)c1cccc(CN2CC=C(c3c[nH]c4ccc(Cl)cc34)CC2)c1 | 663
10 | Cc1cccc2nc(-c3cccc(-c4ccc(C(=O)N5CCCCC5C(C)O)cc4)c3)[nH]c12 (centres undefined) | 371
11 | O=C(Nc1ccc(F)c(Cl)c1)c1cc([N+](=O)[O-])cc2cn[nH]c12 | 315
12 | CCOc1cc(C(=O)Nc2ccc3nc(N4CCCCC4)cc(C)c3c2)cc(OCC)c1OCC | 825
13 | COc1ccc2[nH]ccc(=NN=Cc3cccc(C)n3)c2c1 | 764
14 | Cc1cccc2nc(O)c([N+](=O)[O-])c(O)c12 | 911
15 | C=CCn1ccc2c3c(N)nc(N)nc3ccc21 | 70
16 | COc1ccc(CNCc2ccc(-c3cccc(-c4nc5ccccc5[nH]4)c3)cc2)cc1 | 214
17 | O=C(O)c1ccc2c(c1)N(C(=O)CNCc1ccc(F)cc1)CC(=O)N2CCCc1ccccc1 | 919
18 | Cn1ccc(C(=O)Nc2ccc3c(c2)CN(Cc2ccc(N4CCCC4)o2)CCC3)n1 | 1310
19 | O=C(Nc1ccc(C(F)(F)F)cc1)Nc1cccc([N+](=O)[O-])c1 | 865
20 | COc1cccc(-c2cccc(-c3ccc(NC(=O)c4ccc([N+](=O)[O-])o4)cc3)n2)c1 | 515
21 | Cn1nc(-c2ccccc2F)c2cc(C(=O)Nc3cccnc3)sc21 | 810
22 | COc1ccccc1Nc1nc(NC2CCN(C)CC2)cc(-c2cccc(C(F)(F)F)c2)n1 | 919
23 | CS(=O)(=O)c1ccc(CNCc2cccc(-c3ccc(-c4nc5cc(C(F)(F)F)ccc5[nH]4)cc3)c2)cc1 | 513
24 | COc1ccc(C(C(=O)NC2CCN(C[C@H](O)c3ccnc4ccc(OC)cc34)CC2)N2CCc3ccccc3C2)cc1 (some centres undefined) | 697
25 | CC(C)CC(=O)N1CCNC[C@@H]1C(=O)NC1CC1 | 1090

Row | SMILES | XC50 [nM]
26 | COc1c(OC)c(OC)c2ccccc2c1CCNCCCCNCCc1c(OC)c(OC)c(OC)c2ccccc12 | 612
27 | Cc1cccc2nc(-c3ccc(-c4ccc(CNCc5cccc(N)c5)cc4)s3)[nH]c12 | 751
28 | CCC(C)(C)NC(C)C(O)c1ccc(C(F)(F)F)cc1 (centres undefined) | 750
29 | CN1CCC(Oc2ccc(Nc3nccc(NCC(O)c4ccccc4)n3)cc2Cl)CC1 (centres undefined) | 785
30 | CN1CCC(C(=O)N(Cc2ccc(-c3ccc(CNCCc4ccccc4)cn3)cc2)Cc2cccc(F)c2)CC1 | 935
31 | CN1CCN(CCCN(Cc2cccc(-c3ccc(CNCCc4ccccc4)cc3)c2)C(=O)Nc2ccccc2)CC1 | 834
32 | O=C(/C=C/c1ccc(Cl)c(Cl)c1)NCCCCCN1C2CCC1CC(c1c[nH]c3ccccc13)C2 (centres undefined) | 840
33 | O=C1C(c2ccccc2)=C(Nc2ccc([N+](=O)[O-])cc2)c2ccccc21 | 871
34 | OCC1CCN(Cc2cccc(-c3ccc(-c4nc5cc(C(F)(F)F)ccc5[nH]4)cc3)c2)CC1 | 662
35 | Cc1ccc(Nc2nc3cc(Nc4ccnc(Nc5cccc(CS(C)(=O)=O)c5)n4)ccc3o2)cc1 | 923
36 | Fc1cc(Cl)ccc1Nc1ccnc(Nc2ccc3cn[nH]c3c2)n1 | 737
37 | CCOc1cc(NCCCNc2ncc([N+](=O)[O-])cc2C)nc2ccccc12 | 692
38 | Cc1onc(-c2ccccc2Cl)c1C(=O)Nc1cc(Cl)c(Cl)cc1Cl | 1180
39 | Oc1ccc(CCNc2nc(NCc3cccc(-c4cc(C(F)(F)F)ccc4Cl)c3)nc(N3CCNCC3)n2)cc1 | 1780
40 | CCc1cn(C)c2c(N3CCCC3=O)cc(C(=O)N[C@@H](Cc3ccccc3)[C@H](O)CNCc3cccc(OC)c3)cc12 | 784
41 | CN1CCN(c2nsc3ccc(-c4ccc(NC(=O)Nc5ccccc5)cc4)cc23)CC1 | 180
42 | O=C(C=Cc1ccc(F)c(Br)c1)N1CCC(CN2CCC(c3c[nH]c4ccccc34)CC2)CC1 | 745
43 | CCC(C)CN1CCN(c2cc(NC(=O)c3cccs3)ccn2)C(C)C1 (centres undefined) | 997
44 | COC(=O)c1ccc(CC(C)NCC(O)c2cccc(C(F)(F)F)c2)c(OC)c1 (centres undefined) | 804
45 | COc1ccc2nccc(N(C)CC3(O)CCN(CCc4ccc5c(c4)NC(=O)CS5)CC3)c2n1 | 136
46 | CCCC(=O)NC(c1ccc(C)cc1)c1ccc2cccnc2c1O (centres undefined) | 957
47 | O=C(NCCc1ccccc1)[C@H](Cc1ccccc1)Nc1ccnc(NCC2CCCCC2)n1 | 1380
48 | N=c1cc(C=Cc2ccc(O)cc2)[nH]c2ccccc12 | 993
49 | Cc1ccc(NC(=O)c2ccc(CN3CCCN(CC4CCCCC4)CC3)cc2)cc1C | 1020
50 | c1nc(CCNc2nc(Nc3ccc4c(c3)OCO4)nc(NC3CCCC3)n2)c[nH]1 | 1150

Row | SMILES | XC50 [nM]
51 | Oc1ccc(CCNCCCCCCNCCc2ccc(Cl)c3ccccc23)cc1O | 716
52 | COc1ccc(Cc2c(C)nc3nc(N)nc(N)c3c2C)cc1OC | 912
53 | CCOC(=O)c1ccc(N2CCN(c3cc(Cl)ccc3C)CC2)c(NC(=O)Nc2ccc(Cl)c(Cl)c2)c1 | 584
54 | Cc1cccc2nc(-c3ccc(-c4ccc(NC(=O)Nc5ccsc5)cc4)s3)[nH]c12 | 113
55 | c1cc(CNC2Cc3ccc(-c4cccs4)cc3C2)cc(-n2ccnc2)c1 (centres undefined) | 594
56 | Oc1ccc2[nH]cc(C3CCN(CCCCCCCCCN4CCC(c5c[nH]c6ccc(O)cc56)CC4)CC3)c2c1 | 314
57 | O=C(N[C@@H](CC1CCCCC1)C(=O)NCCc1ccc(Cl)c(Cl)c1)c1ccc(O)c(-c2ccc(Cl)c(Cl)c2)c1 | 156
58 | O=C(Nc1ccc(-c2ccccc2)c(OCCN2CCNCC2)c1)c1ccc(-c2ccc(Cl)cc2)cc1 | 779
59 | Cc1cc(N2CCN(CC3CCN(C)CC3)CC2)nc(Nc2ccc(Cl)cc2)n1 | 698
60 | O=C(NCc1ccc(F)cc1)c1cc(Br)cc(N2CCN(c3ccncc3)CC2)c1 | 1230
61 | COc1ccc(C2N=C(N)N=C(N)N2c2ccc(Cl)cc2)cc1OC (centres undefined) | 1000
62 | CC(=O)Nc1ccc(Cl)c(Cl)c1 | 41.6
63 | CCCCN(Cc1cnccc1-c1ccc(Br)cc1)c1ccc(C(O)(C(F)(F)F)C(F)(F)F)cc1 | 1060
64 | Cc1ccccc1Cn1c(CN2CCC(C(=O)NC3CC3)CC2)cc2ccccc21 | 477
65 | N[C@@H](CCN1CCC(c2cccc(O)c2)CC1)Cc1ccc(F)c(F)c1 | 1110
66 | O=C(NC1CCN(Cc2ccccc2O)C1)c1cccc(C(F)(F)F)c1 (centres undefined) | 730
67 | COc1ccc(CN(C)CCCCc2ccc(NC(=O)COc3cccc4sc5ccccc5c(=O)c34)cc2)cc1OC | 809
68 | O=C(NC1CCN(c2ccnc3cc(Cl)ccc23)C1)c1cccc(F)c1 (centres undefined) | 179
69 | OC(CNCc1cccc(Oc2ccc(Cl)cc2)c1)c1cc(C(F)(F)F)cc(C(F)(F)F)c1 (centres undefined) | 255
70 | O=S(=O)(NCCN1CCCC1)c1cccc(-c2ccc(CNCc3ccsc3)cc2)c1 | 804
71 | O=C(NCCCCNCC(Cc1cccc(O)c1)c1ccccc1)c1ccc(NC(=O)c2ccc(Cl)cc2)cc1 (centres undefined) | 1040
72 | c1ccc2[nH]c(CN(Cc3nc4ccccc4[nH]3)Cc3nc4ccccc4[nH]3)nc2c1 | 668
73 | COc1ccc(CCN(C)CCOc2ccc(NC(=O)c3cccc4c(=O)c5cc(SC)ccc5[nH]c34)cc2)cc1OC | 740
74 | FC(F)(F)c1ccc2[nH]c(-c3cccc(-c4cccc(CN5CCN(c6ccncc6)CC5)c4)c3)nc2c1 | 158
75 | Cc1ccc2nc(C)cc(Nc3ccccc3O)c2c1 | 791

Row | SMILES | XC50 [nM]
76 | O=C1CCCN1CCCNCc1cccc(-c2cccc(-c3nc4cc(C(F)(F)F)ccc4[nH]3)c2)c1 | 299
77 | COc1ccc(C2=[N+]([O-])c3ccccc3C2=O)cc1 | 783
78 | Cc1cc(-c2ccc(Cl)cc2)c2c(N)c(C(=O)Nc3ccc(F)cc3)sc2n1 | 818
79 | NS(=O)(=O)c1cccc(-c2ccc3c(O)ncnc3c2)c1 | 946
80 | CCOc1cccc(C(=O)Nc2cccc(CN3CCCN(Cc4ccc(O)cc4)CC3)c2)c1 | 824
81 | CS(=O)(=O)NCCCNCc1cccc(-c2ccc(-c3nc4cc(C(F)(F)F)ccc4[nH]3)s2)c1 | 880
82 | CC(C)(C)c1ccc(Cn2nc(C(=O)N3CCN(C(=O)C4CCCO4)CC3)c3ccccc32)cc1 (centres undefined) | 1320
83 | O=C1OC2(CN1CC1CCN(Cc3ccc(O)cc3Cl)C1)c1ccccc1-c1ccccc12 (centres undefined) | 1170
84 | CN1CCN(c2ccnc3ccc(NC(=O)Nc4ccc(-c5ccncc5)c(C(F)(F)F)c4)cc23)CC1 | 823
85 | Cc1nnc2c(NC(=O)NC3CCCC3)cc3cc(-c4ccc(CN5CCCCC5)cc4)ccc3n12 | 948
86 | Cc1nn(-c2ccccc2)c2sc(C(=O)N(CCCN(C)C)c3nc(-c4ccccc4)cs3)cc12 | 981
87 | Cc1nc2ccc(NC(=O)c3cc(S(=O)(=O)N(C)C)ccc3Cl)cc2s1 | 816
88 | O=C(/C=C/c1ccc(Cl)c(Cl)c1)NCCCCCCN1CCCN(C(=O)Nc2cccc(Cl)c2)CC1 | 855
89 | COc1ccc2nc(C)cc(Nc3ccc(Oc4ccc(Cl)c5ccccc45)c(Cl)c3)c2c1 | 730
90 | COc1ccc(Cn2ncc3c4c(N)nc(N)nc4ccc32)cc1OC | 3.2
91 | CC(C)(C)c1nn(-c2ccccc2)c2[nH]c(=O)c(CNCCc3ccccc3)cc12 | 866
92 | Clc1ccccc1OCc1ccccn1 | 994
93 | Cc1ccc(-n2cc(CNCCc3nc(C)c[nH]3)c(-c3ccc(F)cc3)n2)cc1 | 1510
94 | O=C(Nc1cccc(-c2cccc(-c3nc4cc(F)ccc4[nH]3)c2)c1)c1ccoc1 | 333
95 | Cc1ccc(C)c(-n2c(SCC(=O)Nc3ccc(C(N)=O)cc3)nnc2-c2cccc(Cl)c2)c1 | 845
96 | CC1CCCN(C(=O)c2cc(-c3ccccn3)nc3c(Cl)cccc23)C1 (centres undefined) | 1080
97 | O=C(Nc1ccc(-n2ccc(C(F)(F)F)n2)cc1)c1cccs1 | 1070
98 | COc1cc2c(cc1OC)CN(CCCCNC(=O)c1ccc(NC(=O)c3cc(Cl)cc(Cl)c3)cc1)CC2 | 778
99 | CC1CCN(CCCNc2ccc(C(=O)Nc3ccc(C(F)(F)F)cc3)cc2[N+](=O)[O-])CC1 | 340
